# Like-named read-outs stand apart in the source and are kept apart here.
# What was measured:
# [1] = system: rats; format: in vivo
# Description: Animals: 8-9 weeks-old rats are used. General procedures for animal care and housing are in accordance with the National Research Council (NRC) Guide for the Care and Use of Laboratory Animals (1996) and the Animal Welfare Standards incorporated in 9 CFR Part 3, 1991.
# Treatment: Rats are treated i.v with FK506 and i.p. with Quercetin. Rats receive daily administrations containing either 0.5 mg/kg or 2 mg/kg of FK506 approximately one hour after the start of the light cycle. Rats are treated 30 minutes prior to FK506 treatment with quercetin at three different concentrations, 10 mg/kg, 25 mg/kg or 200 mg/kg. Subsets of 5 rats per group are used for blood sampling at each time point. Blood is collected for glucose measurement on days 0, 5, 9, and 14.
# [2] = system: mouse spleen cells; assay: In vitro Con A assay on spleen cells; format: cell-based; details: for response of spleen cells to Con A (proliferation): high ([…]10^6 cells/well) and low (8×10^5 cells/well) cell concentration
# Description: (§1) Animals: 8-9 weeks-old Lewis and Brown Norway male rats are obtained from Charles River Laboratories. General procedures for animal care and housing is in accordance with the National Research Council (NRC) Guide for the Care and Use of Laboratory Animals (1996) and the Animal Welfare Standards incorporated in 9 CFR Part 3, 1991.
# Spleens are collected for use in in vitro Con A and LPS assays.
# Spleen cells are treated with Con A in the presence of vehicle, tacrolimus, quercetin or two different concentrations of tacrolimus (10^−8.2 and 10^−8.5 M) and increasing doses of quercetin at a high cell concentration (FIG. 13) or at a low cell concentration (FIG. 14). […] There is no significance difference between the effect of quercetin on tacrolimus induced cell suppression in vitro at the different concentrations used for quercetin. The same results are observed in cultures with low cell concentration (FIG. 14).
# [3] = system: mouse spleen cells; assay: In vitro LPS assay on spleen cells; format: cell-based; details: high ([…]10^6 cells/well) and low (8×10^5 cells/well) cell concentration
# [4] = Sulfobutylether-7-β-cyclodextrin quercetin aqueous composition: concentration and storage stability; format: physicochemical; details: 10 mg/ml in water with sulfobutylether-7-β-cyclodextrin
# Description: The flask is placed in an ice bath. When all of the Captisol is dissolved, 1.24 g of quercetin (Micron Technologies) (equivalent to about 1 g of anhydrous quercetin) is added with stirring. Into the flask, 12 ml of 1 N sodium hydroxide is added over about 5 to 10 minutes. […] Into the flask is then added 10.5 ml of hydrochloric acid over 5 to 10 minutes at a slow enough rate to avoid precipitation. During the addition of the sodium hydroxide and the hydrochloric acid, the temperature is maintained at less than 20° C. DI water is then added to give total volume of 100 ml. This procedure results in a sulfobutylether-7-β-cyclodextrin-quercetin aqueous composition at a concentration of 10 mg/ml (33 mM) in quercetin at a pH of about 7.8.
# [5] = Solubility of quercetin with sulfobutylether-7-β-cyclodextrin and meglumine; format: physicochemical; details: Captisol 30% w/v, Meglumine 44 mM, room temperature, about 10 minutes, excess solids removed
# Description: Sulfobutylether-7-β-cyclodextrin (Captisol™) is dissolved in water to form a solution at 30% w/v. To the Captisol solution is added Meglumine at a concentration of 44 mM and […] at a concentration of about 20 mg/ml. The solution is stirred at room temperature for about 10 minutes. The solution is separated from any excess solids (e.g. by filtration). The concentration of quercetin in the solution is about 9.2 mg/mL.
# [6] = cited from earlier work
# [7] = quercetin or a quercetin derivative; cited from earlier work
# [8] = system: LEW responder splenocytes (lymphocyte proliferation); assay: Mixed lymphocyte reaction (MLR) with spleen cells of treated Lewis rats; format: cell-based, rat
# Description: Animals: 8-9 weeks-old Lewis and Brown Norway male rats are obtained from Charles River Laboratories. General procedures for animal care and housing are in accordance with the National Research Council (NRC) Guide for the Care and Use of Laboratory Animals (1996) and the Animal Welfare Standards incorporated in 9 CFR Part 3, 1991.
# (§2) Treatment: Lewis rats are treated with different single doses of LNS 0694 i.p. 30 minutes prior to single i.v. injections of tacrolimus at a concentration of 1 mg/kg as described in the table below.
# (§3) Spleens are collected at 4 hr after administration of FK506 for use in the in vitro mixed lymphocyte reaction (MLR) and Con A assays. In addition to treated Lewis rats, spleens are collected from 5 Brown Norway rats (not treated) which are used for the in vitro assay.
# Mixed lymphocyte reactions: A single cell suspension of the spleen of each rat on test (LEW, responder) is prepared with a Dounce homogenizer and wash-medium. The cell suspension is depleted of red blood cells (treatment with NH4CL/Tris buffer) and washed twice with wash medium before resuspending in complete medium (CM; RPMI 1640 with 5% heat-inactivated (30 minutes at 56° C.) normal rat serum (from Lewis rats), 2 mM GlutaMAX, 100 U/ml penicillin and 100 μg/ml streptomycin mixture, and 55 μM 2-mercaptoethanol). A single cell suspension of splenocytes from five Brown Norway rats (BN, stimulators) is prepared with the same method. The BN splenocytes are pooled and irradiated with 1,500-2,000 rad (cesium source) before use.
# Varying numbers of responder cells are mixed with a constant number of stimulators (105) in 96-well, U-bottom cell culture plates to give a final responder:stimulator (R:S) ratio of 10:1, 5:1, 1:1 and 0.5:1 in 200 μl CM. Control wells for each cell suspension contained 10^5 responders alone in medium and 105 pooled, irradiated stimulators alone in medium (separate wells). For a positive proliferative response, each responder (10^5) is treated with 2.5 μg/ml Con A. […]
# The results of the MLR assays [thymidine incorporation as counts per minute (CPM)] are expressed as mean±SD.
# [9] = system: LEW responder splenocytes activated with Con A; assay: Con A stimulated proliferation of spleen cells of treated Lewis rats; format: cell-based, rat; details: LNS 0694 i.p. before FK 506 1 mg/kg i.v.
# Description: as §2, §3
# Varying numbers of responder cells are mixed with a constant number of stimulators (105) in 96-well, U-bottom cell culture plates to give a final responder:stimulator (R:S) ratio of 10:1, 5:1, 1:1 and 0.5:1 in 200 μl CM. Control wells for each cell suspension contained 10^5 responders alone in medium and 105 pooled, irradiated stimulators alone in medium (separate wells). For a positive proliferative response, each responder (10^5) is treated with 2.5 μg/ml Con A.
# Cultures are incubated at 37±° 1 C. for 72±2 hours in 5±1% CO2 humidified air. Each well is pulsed with 1 μCi tritiated thymidine for 18±2 hours before automatic harvesting and analysis in a liquid scintillation counter.
# [10] = Pharmacokinetics of FK 506 in male Lewis rats, whole blood drug levels; format: in vivo; details: FK 506 1 mg/kg i.v. with i.p. LNS 0694 at different doses
# Description: as §1
# Treatment: Lewis rats are treated as described in example 3. Subsets of 3 Lewis rats per group are used for blood sampling at each time point (Groups 2-5) as described in the table below.
# Plasma Blood Sample Collection: Whole blood is collected from the retro-orbital sinus under 60:40 CO2:O2 anesthesia using EDTA as the anticoagulant. Sample collection is performed at 9 time points: 5, 15, and 30 min and 1, 2, 4, 6, 8, & 24 hr after administration of FK 506. Three samples are collected from each rat per group (Groups 2-5). The first 2 samples are collected under anesthesia, after which the animal regains consciousness and is retained until the next collection interval. […]
# Drug levels are determined in collected whole blood samples using a bioanalytical method developed to detect parent drug levels.
# Results: The pharmacokinetics parameters of FK 506 are determined in male Lewis rats after 1 mg/kg i.v. administration alone or in combination with i.p, administration of different doses of LNS 0694 (See FIG. 15).
# [11] = system: heart transplant patients; details: target range 5-15 ng/mL, tacrolimus treatment arm, European study; cited from earlier work
# [12] = system: islet; details: 0.01 μmol/liter, after 7-d incubation; cited from earlier work
# [13] = system: renal transplant recipients; details: cited from earlier work
# [14] = system: murine or human T cells; details: disrupting calcium signaling events that lead to lymphokine production; cited from earlier work
# [15] = system: liver transplant patients; details: two liver transplant trials; 514 patients tacrolimus and steroids, 515 patients CBIR; cited from earlier work
compound,measurement,setting,value
O=c1c(O)c(-c2ccc(O)c(O)c2)oc2cc(O)cc(O)c12 [quercetin],FK506 induced hyperglycemia,"[1]; FK506 0.5 mg/kg i.v. daily, quercetin i.p. 30 minutes before, FIG. 2",decreases
same,increase of glucose blood levels by FK506,"[1]; FK506 0.5 mg/kg, quercetin 10, 25 and 200 mg/kg",reduced
same,increase of blood glucose (percent change),"[1]; FK506 2 mg/kg + quercetin 10 mg/kg, day 9",60%
same,increase of blood glucose (percent change),"[1]; FK506 2 mg/kg + quercetin 25 mg/kg, day 9",90%
same,percent change of blood glucose,"[1]; FK506 2 mg/kg + quercetin 200 mg/kg, day 9",reduced to the levels similar to rats treated with vehicle alone
same,FK506 induced hyperglycemia,"[1]; FK506 2 mg/kg i.v. daily, quercetin i.p. 30 minutes before, FIG. 1",decreases
same,increase in glucose blood levels by FK506,"[1]; FK506 2 mg/kg, day 5, quercetin 10, 25 and 200 mg/kg",reduced
same,increase of glucose blood levels by FK506,"[1]; FK506 2 mg/kg, day 9, quercetin 10, 25 and 200 mg/kg",reduced
same,FK506 induced hyperglycemia,"[1]; conclusion of Example 4, both FK506 doses",decreases
same,tacrolimus induced cell suppression in vitro,"[2]; Con A, tacrolimus 10^−8.2 and 10^−8.5 M with increasing doses of quercetin, high cell concentration",does not impair
same,effect of tacrolimus on cells,[2]; conclusion of Example 6,does not alter
same,response of spleen cells to Con A (proliferation),[2],no significant effect
same,response of spleen cells to LPS (proliferation),[3],no significant effect
same,stability of solution to precipitation,[4],stable for more than two weeks without precipitation
same,concentration of quercetin in the solution,[5],about 9.2 mg/mL
same,stability in solution,[6]; above pH 5,degradation
same,stability in solution,[6]; below pH 3,stable
same,serum half-life,[7],19 to 25 h
O=c1c(O)c(-c2ccc(O)c(O)c2)oc2cc(O)cc(O)c12 [LNS 0694],FK 506 inhibitory effect on lymphocyte proliferation in MLR,"[8]; LNS 0694 50, 150, 300 mg/kg i.p. 30 minutes before FK 506 1 mg/kg i.v.",increases FK 506 inhibitory effect in a dose-dependent manner
same,FK 506 inhibitory effect on lymphocyte proliferation after Con A,[9],increases FK 506 inhibitory effect
same,peripheral bioavailability of FK506,[10],increases the peripheral bioavailability of FK506 in a dose dependent manner
"C=CC[C@@H]1/C=C(\C)C[C@H](C)C[C@H](OC)[C@H]2O[C@@](O)(C(=O)C(=O)N3CCCC[C@H]3C(=O)O[C@H](/C(C)=C/[C@@H]3CC[C@@H](O)[C@H](OC)C3)[C@H](C)[C@@H](O)CC1=O)[C@H](C)C[C@@H]2OC (relative stereo) [tacrolimus, [3S-[3R[E(1S*,3S*,4S*)], 4S*,5R*,8S*,9E,12R*,14R*,15S*,16R*,18S*,19S*,26aR*]]-,6,8,11,12,13,14,15,16,17,18,19,24,25,26,26a-hexadecahydro-5,19-dihydroxy-3-[2-(4-hydroxy-3-methoxycyclohexyl)-1-methylethenyl]-14,16-dimethoxy-4,10,12,18-tetramethyl-8-(2-propenyl)-15,19-epoxy-3H-pyrido[2,1-c][1,4]oxaazacyclotricosine-1,7,20,21(4H,23H)-tetrone, monohydrate]",percent change of glucose blood level,"[1]; rat, in vivo, 0.5 mg/kg",greater increase
same,lymphocyte proliferation in MLR (thymidine incorporation),"[8]; FK 506 1 mg/kg i.v., spleens collected at 4 hr",inhibited
same,inhibitory effect on MLR by R:S ratio,"[8]; FK 506 1 mg/kg i.v., R:S ratios 0.5:1, 1:1, 5:1",stronger inhibitory effect at lower R:S ratios
same,response of spleen cells to Con A (proliferation),[2],inhibits Con A-induced proliferation in a dose dependent manner
same,response of spleen cells to LPS (proliferation),[3],inhibits LPS-induced proliferation in a dose dependent manner
same,patients with trough concentrations within the pre-defined target range,[11],74-86%
same,"glucose-stimulated insulin secretion, of the control value",[12],32±5%
same,incidence of posttransplant diabetes mellitus (PTDM),[13]; Japan,31.4%
same,incidence of posttransplant diabetes mellitus (PTDM),[13]; western countries,10-30%
same,potency relative to CsA,[14],50-100 fold
same,proportion of patients reporting more than one adverse event,[15],99.8%

# From patent US20090325906A1, “Methods and compositions for therapeutic treatment” (priority 2008, published 2009)
